Converted amounts (≈) assume the structure as drawn. Bridge positions count the residues as written; N and C are the ends. Peptide text beside a SMILES is read from it.

Data on two compounds can be found in paper PMC6858451, “Rhesus Theta Defensin 1 Promotes Long Term Survival in Systemic Candidiasis by Host Directed Mechanisms” (Scientific Reports, 2019).

Data set [1] relates to C. albicans 43001. Put plainly: MIC/MFC, broth microdilution (modified CLSI M27-A2). It counts as cell-based. As for the experimental part:
(§1) C. albicans strains were tested against RTD-1, fluconazole, and caspofungin in microdilution broth in accordance with Clinical and Laboratory Standards Institute (CLSI) document M27-A2 with the exception that 25 mM MOPS was used in place of 165 mM MOPS, as described previously. Overnight cultures were harvested by centrifugation, washed twice with Ca^2+ and Mg^2+-free PBS, pH 7.2, and suspended in test medium (RPMI 1640 medium, 25 mM MOPS, 2 mM L-glutamine) at 10^4 CFU/ml[62]. Incubations were conducted in flat bottom, 96-well microtiter plates (Greiner bio-one, Monroe, NC) containing 0.2 ml test medium per well. Duplicate 0.1 ml aliquots of serial two-fold dilutions of peptides and antifungal drugs were dispensed into wells, each of which was inoculated with 0.1 ml of fungal cell suspension containing 1 × 10^3 CFU. Plates were incubated at 30 °C for 48 hours after which A600 was determined using a SpectraMax M5e plate reader.
(§2) Minimal fungicidal concentration (MFC) was determined by plating, on YPD plates, 10 µl from wells in MIC assay without cell growth and the first well with measurable turbidity as described[63]–[66] and corresponding aliquots from the no-agent controls. […] MFC is reported as the lowest concentration of peptide or antifungal drug that killed ≥99% of the input organisms.
(§3) MICs and MFCs of RTD-1 were also performed in the presence of 50% mouse serum. Serum was prepared from blood collected by cardiac puncture from BALB/c mice. After coagulation at room temperature, serum was collected by centrifugation (200 g for 10 min followed by 23,000 g for 15 min), and diluted with an equal volume of yeast inoculum in MIC test medium described above.
In general terms: Dilution methods test growth across graded concentrations, often in twofold steps.

Data set [2] has as its system C. albicans SC5314. The data set is described as above. In kind it is cell-based. The settings on record: Candida albicans. As for the experimental part:
as §1, §2, §3

Data set [3] has as its system C. albicans 53264. The description is as above. It counts as cell-based. As for the experimental part:
as §1, §2, §3

The subject of data set [4] is host and fungal proteases. The conditions noted are these: cited from earlier work.
The test system of data set [5] is blood neutrophils, monocytes and inflammatory cytokines. Put plainly: Hematology and plasma cytokine analyses in naive and candidemic mice. In kind it is in vivo. The text has this:
EDTA-anticoagulated blood was collected aseptically by terminal cardiac puncture and analyzed for complete blood cell count using a HemaVet 950 FS hematology analyzer (Drew Scientific). Plasma cytokine levels plasma were quantified using a mouse-specific MILLIPLEX MAP kit (Millipore) as described.

The subject of data set [6] is C. albicans. The settings on record: planktonic cells; cited from earlier work. The source says: RTD-1 is the prototype θ-defensin, the only known backbone cyclized polypeptides in the Animal Kingdom. All natural θ-defensin isoforms are 18-amino acid macrocycles stabilized by a six cysteine, tridisulfide core. […] As reported here and elsewhere, RTD-1 kills Candida ...

For data set [7] the following is noted: cited from earlier work.
The nature of data set [8]: RTD-1 plasma pharmacokinetics. As for the experimental part: RTD-1 plasma levels were also analyzed 60 or 240 min after additional daily 5 mg/kg i.p. doses administered up to 6 days.
Single dose PK of RTD-1 was evaluated by quantifying plasma peptide concentrations at intervals following 5 mg/kg bolus injections administered i.v. and i.p. to CD-1 mice. At indicated intervals, plasma was prepared from EDTA-anticoagulated blood collected aseptically by terminal cardiac puncture. Plasma was diluted 1:10 or 1:20 into 5% formic/5% acetonitrile. RTD-1 plasma concentrations were determined by reverse-phase liquid chromatography (XBridge phenyl 3.5 µm column, Waters) on an Acquity H-Class UPLC (Waters) with tandem electrospray mass spectroscopy on a Xevo TQ-S running MassLynx V4.1 (Waters). Quantitative mass spectroscopy was performed by multiple-reaction monitoring transition 417.38 > 517.14, with area under the curve determined by TargetLynx (Waters). Pharmacokinetic modeling of intravenous RTD-1 concentration-time data was performed with ADAPT (version 5) software using the naïve pooled data approach. One- and two-compartment models were evaluated. Model selection was based on the Akaike information criterion (AIC) and the Bayesian information criterion (BIC) scores, the likelihood ratio test (LRT), and goodness-of-fit plots. […] Area under the curve (AUC24) was calculated by taking the average of RTD-1 concentrations at each time point and applying the linear trapezoidal method. Bioavailability (F) for i.p. injection was determined using the ratio of AUCs from i.p. and i.v.

For data set [9] the following is noted: cited from earlier work. This is another data set of the same source.
The mark [10] stands for this setting: candidemic mice, single 5 mg/kg i.p., 7 days p.i.
Where [11] appears, read: long term survivors, day 30 p.i.
Where [12] appears, read: 5 mg/kg i.v., two-compartment model, mean.

One may read the MIC as the least concentration at which growth counts as inhibited. A word on the MFC: it is the lowest tested concentration that kills the fungus rather than only halting it. For the compound `CC[C@H](C)C[C@H](C)CCCCCCCCC(=O)N[C@H]1C[C@@H](O)[C@@H](NCCN)NC(=O)[C@@H]2[C@@H](O)CCN2C(=O)[C@H]([C@H](O)CCN)NC(=O)[C@H]([C@H](O)[C@@H](O)c2ccc(O)cc2)NC(=O)[C@@H]2C[C@@H](O)CN2C(=O)[C@H]([C@@H](C)O)NC1=O` [Caspo, caspofungin], the MIC in [1] (Candida albicans, 43001, RPMI 1640, 25 mM MOPS, 2 mM L-glutamine, 1 × 10^3 CFU/well, 30 °C, 48 h, A600, complete inhibition of growth, duplicate, read-out: MIC) is 2 µg/mL (≈ 1.83 µM); in data set [2] (RPMI 1640, 25 mM MOPS, 2 mM L-glutamine, 1 × 10^3 CFU/well, 30 °C, 48 h, A600, complete inhibition of growth, duplicate), 0.06 µg/mL (≈ 0.0549 µM); in data set [3] (Candida albicans, 53264, RPMI 1640, 25 mM MOPS, 2 mM L-glutamine, 1 × 10^3 CFU/well, 30 °C, 48 h, A600, complete inhibition of growth, duplicate, read-out: MIC), over 8 µg/mL. Besides, the MFC in data set [1] (Candida albicans, 43001, RPMI, plating of MIC wells on YPD, ≥99% killing of input inoculum) is 2 µg/mL (≈ 1.83 µM); in [2] (RPMI, plating of MIC wells on YPD, ≥99% killing of input inoculum), 0.25 µg/mL (≈ 0.229 µM); in data set [3] (Candida albicans, 53264, RPMI, plating of MIC wells on YPD, ≥99% killing of input inoculum), over 8 µg/mL. The “resistance relative to drug sensitive SC5314” value in [1] (strain 43001 vs SC5314, RPMI) is given as 33 fold; in [3] (strain 53264 vs SC5314, RPMI), over 133 fold.

For orientation: Cmax means the peak of the concentration-time curve. As usually defined, the Tmax is the time from dosing to the highest level. As a reminder, the bioavailability is dose-corrected exposure relative to a reference, in per cent. The term clearance denotes the rate of elimination divided by the concentration. A high value points to efficient removal. As a reminder, the half-life is the time in which the quantity being followed falls by half. With `CC[C@H](C)[C@@H]1NC(=O)[C@@H]2CSSC[C@H](NC(=O)[C@H](CCCNC(=N)N)NC(=O)[C@@H]3CSSC[C@H](NC1=O)C(=O)N[C@@H]([C@@H](C)O)C(=O)N[C@@H](CCCNC(=N)N)C(=O)NCC(=O)N[C@@H](Cc1ccccc1)C(=O)N3)C(=O)N[C@@H](CC(C)C)C(=O)N[C@H]1CSSC[C@H](NC(=O)[C@H](C(C)C)NC(=O)CNC(=O)[C@H](CCCNC(=N)N)NC(=O)[C@H](CCCNC(=N)N)NC1=O)C(=O)N[C@@H](CCCNC(=N)N)C(=O)N2` [RTD-1, Rhesus theta (θ) defensin-1] (cyclo(GFCRCLCRRGVCRCICTR); disulfide 3-16, 5-14, 7-12 (inferred); ring closure inferred), in data set [4], the “stability to fungal proteases” value is “highly stable” and the “stability to host proteases” value is on record as “highly stable”. Further, the blood neutrophil counts result in data set [5] (candidemic mice (SC5314), single 5 mg/kg i.p. at T = 0, 4 h p.i.) was “significantly (P = 0.008) increased blood neutrophil counts”. In [5] (candidemic mice, single 5 mg/kg i.p. at T = 0, day 7, vs saline), the blood neutrophil counts result is recorded as “significantly (P = 0.0002) lower”. Moreover, in data set [5] (setting [10]), the “IL-10 or IL-6 levels” value is “no effect”; the “blood proinflammatory cytokines TNF, IL-1β and IL-17” value is given as “significant reduction”. Besides, in data set [5] (setting [11]), the circulating granulocytes result is listed as “homeostatic normalization of circulating granulocytes”; the “levels of TNF, IL-10 and IL-6” value is listed as “normalized to those of uninfected controls”. Further, in [5] (naive mice), the blood cytokine levels result was “did not alter the levels of these cytokines”. The “increase of blood neutrophils” value in data set [5] (naive mice, single 5 mg/kg i.p., 4 h, P = 0.32) came to 2.3 fold. In addition, in data set [6], the “time to permeabilization of C. albicans to propidium iodide” value is given as under 10 min. Besides, the “stability in serum and plasma” value in [7] is recorded as “highly stable”. Further, in data set [8] (setting [12]), the “CLd, distributional clearance” value came out at 3.248 mL/h; the “K10, elimination rate constant from the central compartment” value is 0.9719 h⁻¹; the “T1/2-λ1, distribution half-life” value is recorded as 0.5676 h; the “Vc, central volume of distribution” value is given as 14.58 mL. In data set [8] (setting [12]), the “Vp, peripheral volume” value worked out at 24.88 mL; the “λ1, distribution rate constant” value is 1.221 h⁻¹; the “λ2, terminal rate constant” value was 0.1039 h⁻¹. Also, the accumulation in plasma result in [8] (daily 5 mg/kg i.p. doses up to 6 days, levels 60 or 240 min after dose) was “did not accumulate in plasma”. In addition, in [8] (mouse, in vivo, ip, 5 mg/kg), the peak concentration (Cmax) was determined as 670 ng/mL, the time of peak concentration (Tmax) stood at 4 h and the bioavailability came to 63.4%. In data set [8] (mouse, in vivo, iv, 5 mg/kg), this compound gave a clearance of 0.236 mL/min and a half-life of 6.67 h. Also, the immunogenicity entry in data set [9] is given as “non-immunogenic”.
